For data set [1], the system named is Candida albicans. Kind of data set: Candidacidal assay (microdilution plate) of Hst 5 after pre-incubation with proteins. Type of data set: cell-based. Particulars: 37 °C, 1 h. On the procedure: (§1) Candidacidal assays—The susceptibility of C. albicans cells to Hst 5 was measured using microdilution plate assays in triplicate as previously described, with some modifications for experiments involving rSap6 and mucins. Briefly, Hst 5 was incubated with the required concentration of respective proteins for 1 h at 37 °C before performing the candidacidal assay. For heat inactivated control of rSaps, protein was heat inactivated at 120 °C for 10 min before using in the candidacidal assay.

The target of data set [2] is T1, rSap 6 (Candida albicans, UniProt Q5AC08).
T1 construct: made in house
Kind of data set: Proteolytic stability of Hst 5 with rSap 6 (10 KDa cut-off filtrate, LC/MS). Type of data set: in vitro ADME. Particulars: 2:1 Hst 5: Sap 6, 37 °C, 1 h, C18 column, peaks m/z 760, 608, 507. The method, then:
To further address whether Sap 6 degrades Hst 5, we spun the 2:1 Hst 5: Sap 6 incubation mixture through a Centricon® 10 KDa molecular weight cut-off column that would allow Hst 5 and smaller peptides to pass through; and subjected the eluate to Liquid Chromatography/Mass Spectrometry. […] Analysis of these fragments to determine Sap6-specific cleavage sites within Hst 5 is ongoing.
(§2) Proteolytic stability—For Hst 5 degradation analysis, Hst 5 was incubated with the required concentration of respective proteins for 1 h at 37 °C; and the reaction mixture was spun through a Centricon® 10 KDa cut-off column (Millipore UFC501024, Amicon Ultra-0.5 centrifugal filter unit with Ultracel-10 membrane), diluted in water with 2%TFA (trifluoroacetic acid) to 40 ug/mL of peptide, and analyzed by Liquid Chromatography/Mass Spectrometry utilizing a C18 column and an API3000 triple quadrupole mass spectrometer (Applied Biosystems, Foster City, CA,USA). The mass spectrum of Hst 5 gave a distribution of charge states with the most abundant being the M + 4 at 760 Da.

The target in data set [3] is T2, albumin (Bos taurus, UniProt P02769).
T2 construct: purchased Sigma Aldrich A2153
Kind of data set: Hst 5 degradation analysis with albumin (10 KDa cut-off filtrate, LC/MS). Type of data set: in vitro ADME. The settings on record: 40 μM Hst 5 with 40 μM albumin, 37 °C, 1 h, C18 column. On the procedure: (§3) We next investigated whether the effect of these proteins on Hst 5 activity is related to complexation and Hst 5 sequestration or as a result, instead, of degradation caused by potential contaminating proteases that may be present in these commercial proteins. For this, 40 μM Hst 5 was incubated for 1 h at 37 °C with either 50 or 500 μg/mL porcine mucin or 40 μM albumin, respectively, and spun through a Centricon® 10 KDa molecular weight cut-off column that would allow Hst 5 and smaller peptides to pass through followed by Liquid Chromatography/Mass Spectrometry analysis of the eluate.
as §2

Data set [4] concerns porcine mucin. The experiment in a line: Hst 5 degradation analysis with porcine mucin (10 KDa cut-off filtrate, LC/MS). Type of data set: in vitro ADME. The settings on record: 37 °C, 1 h. The method, then:
as §3, §2

Data set [5] deals with C. albicans Msb2 domain mutant cells. Kind of data set: Candidacidal assay on HA-tagged Msb2 domain mutant cells. Type of data set: cell-based, Candida albicans. Particulars: Figure 6.
Source text: C. albicans strains with HA-tagged Msb2 and its domain mutants were constructed previously. These mutants consisted of versions of Msb2 lacking each of the major functional domains: ED1/2Δ lacking residues 100–900 of the glycosylated extracellular region so that shed Msb2 is truncated with low glycosylation; ED4Δ cells lacking Msb2 residues 900–1250 within the cleavage domain of Msb2 resulting in constitutive shedding of Msb2 due to loss of cell tethering; and TM-CYTΔ cells lacking residues 1250–1409 that comprise the transmembrane and cytoplasmic signaling domain of Msb2 so that Msb2 is cleaved and shed in the absence of signaling. Briefly, Msb2 deletion derivative strains were constructed by a PCR-based approach using the URA-Blaster technique. PCR primers were designed to amplify the 3HA-URA3–3HA cassette in plasmid pCaMPY-3XHA [26], tailed with an additional 80 nucleotides of sequence flanking the open reading frame (ORF) of the region to be disrupted. PCR products were verified by gel electrophoresis. The purified PCR product (10 μg) was transformed into the Δmsb2/MSB2 strain with Frozen-EZ Yeast Transformation II Kit (Zymo Research, CA, USA). Uracil-deficient agar (YNB-URA) media was used for selection of URA positive colonies. PCR-based analysis of transformants was performed with primer pairs internal to the wild-type locus and the URA cassette. Homozygous transformants were reverted to the URA negative phenotype by selection on 5-fluororotic acid (5-FOA). Domain deletion knockouts were verified by immunoblot analysis.
as §1

The target in data set [6] is T3, Histatin 5 (UniProt P15516).
T3 sequence (peptide): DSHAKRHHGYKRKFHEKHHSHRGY

T2 sequence (P02769 25-607): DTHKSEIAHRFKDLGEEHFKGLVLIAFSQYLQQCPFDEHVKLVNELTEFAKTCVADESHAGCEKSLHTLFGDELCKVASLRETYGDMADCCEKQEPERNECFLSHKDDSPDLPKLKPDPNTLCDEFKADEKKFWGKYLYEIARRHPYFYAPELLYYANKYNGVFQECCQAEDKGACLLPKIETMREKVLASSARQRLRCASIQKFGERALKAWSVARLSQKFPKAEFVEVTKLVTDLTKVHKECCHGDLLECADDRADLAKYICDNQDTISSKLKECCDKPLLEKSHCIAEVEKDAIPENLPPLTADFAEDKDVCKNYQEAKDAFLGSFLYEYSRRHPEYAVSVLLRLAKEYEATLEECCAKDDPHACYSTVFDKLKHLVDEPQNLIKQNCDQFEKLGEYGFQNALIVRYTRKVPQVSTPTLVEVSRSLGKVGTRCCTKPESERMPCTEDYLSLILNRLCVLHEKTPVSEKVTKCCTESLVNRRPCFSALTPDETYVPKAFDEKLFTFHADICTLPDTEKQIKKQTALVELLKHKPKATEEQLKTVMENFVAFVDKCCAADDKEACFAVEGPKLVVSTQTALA
T1 sequence (Q5AC08 77-418): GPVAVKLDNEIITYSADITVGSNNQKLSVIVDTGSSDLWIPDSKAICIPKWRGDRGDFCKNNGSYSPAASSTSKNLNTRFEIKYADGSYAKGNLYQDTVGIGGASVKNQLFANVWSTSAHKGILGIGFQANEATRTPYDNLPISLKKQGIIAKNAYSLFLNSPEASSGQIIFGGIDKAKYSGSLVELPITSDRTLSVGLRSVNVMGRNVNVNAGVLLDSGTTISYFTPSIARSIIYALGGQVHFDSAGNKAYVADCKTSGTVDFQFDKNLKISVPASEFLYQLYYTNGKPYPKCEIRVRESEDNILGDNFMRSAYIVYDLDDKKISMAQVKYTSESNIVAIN

As for `C[C@H](NC(=O)[C@H](Cc1cnc[nH]1)NC(=O)[C@H](CO)NC(=O)[C@@H](N)CC(=O)O)C(=O)N[C@@H](CCCCN)C(=O)N[C@@H](CCCNC(=N)N)C(=O)N[C@@H](Cc1cnc[nH]1)C(=O)N[C@@H](Cc1cnc[nH]1)C(=O)NCC(=O)N[C@@H](Cc1ccc(O)cc1)C(=O)N[C@@H](CCCCN)C(=O)N[C@@H](CCCNC(=N)N)C(=O)N[C@@H](CCCCN)C(=O)N[C@@H](Cc1ccccc1)C(=O)N[C@@H](Cc1cnc[nH]1)C(=O)N[C@@H](CCC(=O)O)C(=O)N[C@@H](CCCCN)C(=O)N[C@@H](Cc1cnc[nH]1)C(=O)N[C@@H](Cc1cnc[nH]1)C(=O)N[C@@H](CO)C(=O)N[C@@H](Cc1cnc[nH]1)C(=O)N[C@@H](CCCNC(=N)N)C(=O)NCC(=O)N[C@@H](Cc1ccc(O)cc1)C(=O)O` [Hst 5, Histatin 5], the “effect on Hst 5 candidacidal activity” value was “did not affect Hst 5 activity” in data set [1] (Hst 5 30 μM pre-incubated with heat inactivated rSap 6 (120 °C, 10 min)); “no effect on Hst 5 activity” in data set [1] (Hst 5 30 μM with porcine gut mucin 5 μg/mL); “no effect on Hst 5 activity” in data set [1] (Hst 5 30 μM with porcine gut mucin 50 μg/mL). Moreover, in data set [2], the “intact Hst 5 mass peaks after incubation with protease” value was “completely disappeared”. For the same molecule, the “intact Hst 5 mass peaks after incubation” value in data set [3] is “reduction in the peak intensity of all 3 m/z peaks for intact Hst 5 with no emergence of any significant lower m/z peaks”; in data set [4] (40 μM Hst 5 with 500 μg/mL porcine mucin, M + 4 (760) peak still observed at lower intensity) it was “almost complete disappearance of m/z peaks at 507 and 608”; in data set [4] (40 μM Hst 5 with 50 or 500 μg/mL porcine mucin, C18 column), “large dose-dependent decrease in the intensity of all three m/z peaks”. For the same molecule, the “Hst 5 killing compared with WT” value in data set [5] (ED1/2Δ cells (release truncated Msb2 shed domain), p > 0.05) is recorded as “killing similar to WT Msb2-HA cells”; in data set [5] (ED4Δ cells (constitutively shed Msb2), p > 0.05), “killing similar to WT Msb2-HA cells”; in data set [5] (TM-CYTΔ cells (lack transmembrane and cytoplasmic domain of Msb2)), “reduced killing”. In addition, the “Hst 5 killing” value in data set [5] (cells lacking Msb2 (msb2Δ, no shedding), compared to other sMsb2 defective strains) is “killing was not significantly reduced”.

“albumin (from UniProt P02769 25-607) (natural protein)” returned a candidacidal activity (percent killing of C. albicans) of 30 uM Hst 5 after 1 h at 37 C with equimolar albumin; 70% without added protein in data set [6] of 50 % killing.

With “purified full-length shed domain of Msb2 (domain or fragment)”, in data set [6], the candidacidal activity (percent killing of C. albicans) of 30 uM Hst 5 after 1 h at 37 C with equimolar sMsb2; 70% without added protein worked out at 38 % killing.

B1: fetuin (natural protein)
chain: IPLDPVAGYKEPACDDPDTEQAALAAVDYINKHLPRGYKHTLNQIDSVKVWPRRPTGEVYDIEIDTLETTCHVLDPTPLANCSVRQQTQHAVEGDCDIHVLKQDGQFSVLFTKCDSSPDSAEDVRKLCPDCPLLAPLNDSRVVHAVEVALATFNAESNGSYLQLVEISRAQFVPLPVSVSVEFAVAATDCIAKEVVDPTKCNLLAEKQYGFCKGSVIQKALGGEDVRVTCTLFQTQPVIPQPQPDGAEAEAPSAVPDAAGPTPSAAGPPVASVVVGPSVVAVPLPLHRAHYDLRHTFSGVASVESSSGEAFHVGKTPIVGQPSIPGGPVRLCPGRIRYFKI
modifications: glycosylated
In the case of B1, in data set [6], the candidacidal activity (percent killing of C. albicans) of 30 uM Hst 5 after 1 h at 37 C with equimolar fetuin; 70% without added protein is 50 % killing.

For the origin of these results see publication PMC4693163, “Candida albicans Shed Msb2 and Host Mucins Affect the Candidacidal Activity of Salivary Hst 5” (Pathogens, 2015).
